Read-outs that look alike come from different tables or passages of the source.
Legend:
Type in all cases: biochemical
[1] = molecular target: DYRK1A (Homo sapiens, UniProt Q13627); experiment: Determination of IC50 values against DYRK1a; conditions: average of duplicate; 10 concentrations 100 μM to 0.003 μM; read-out: IC 50 against DYRK1a
Method: The kinase assay was carried out using Multidrop 384's at room temperature in a total assay volume of 25.5 μl. To plates containing 0.5 μl of compounds, DMSO controls or acid blanks, 15 μl of an enzyme mix containing the DYRK1a enzyme and peptide/protein substrate in buffer was added. Compounds were pre-incubated in the presence of the enzyme and peptide/protein substrate for 5 minutes before initiation of the reaction by addition of 10 μl of ATP (final concentration selected for each kinase at 5, 20 or 50 μM). Assays were carried out for 30 minutes at room temperature before termination by the addition of 5 μl orthophosphoric acid. The assay plates were then harvested onto P81 Unifilter Plates by a Packard Harvester (wash buffer is 50 mM orthophosphoric acid) and dried in air. The dry Unifilter plates were then sealed by the addition of MicroScint O and counted in Packard Topcount NXT scintillation counters.

[2] = molecular target: T1, EPH-B1 (Homo sapiens, UniProt P54762); experiment: Kinase profiling EPH-B1; conditions: for remaining activity at 100 µM: read-out: residual kinase activity, EPH-B1
T1 sequence (P54762 18-984): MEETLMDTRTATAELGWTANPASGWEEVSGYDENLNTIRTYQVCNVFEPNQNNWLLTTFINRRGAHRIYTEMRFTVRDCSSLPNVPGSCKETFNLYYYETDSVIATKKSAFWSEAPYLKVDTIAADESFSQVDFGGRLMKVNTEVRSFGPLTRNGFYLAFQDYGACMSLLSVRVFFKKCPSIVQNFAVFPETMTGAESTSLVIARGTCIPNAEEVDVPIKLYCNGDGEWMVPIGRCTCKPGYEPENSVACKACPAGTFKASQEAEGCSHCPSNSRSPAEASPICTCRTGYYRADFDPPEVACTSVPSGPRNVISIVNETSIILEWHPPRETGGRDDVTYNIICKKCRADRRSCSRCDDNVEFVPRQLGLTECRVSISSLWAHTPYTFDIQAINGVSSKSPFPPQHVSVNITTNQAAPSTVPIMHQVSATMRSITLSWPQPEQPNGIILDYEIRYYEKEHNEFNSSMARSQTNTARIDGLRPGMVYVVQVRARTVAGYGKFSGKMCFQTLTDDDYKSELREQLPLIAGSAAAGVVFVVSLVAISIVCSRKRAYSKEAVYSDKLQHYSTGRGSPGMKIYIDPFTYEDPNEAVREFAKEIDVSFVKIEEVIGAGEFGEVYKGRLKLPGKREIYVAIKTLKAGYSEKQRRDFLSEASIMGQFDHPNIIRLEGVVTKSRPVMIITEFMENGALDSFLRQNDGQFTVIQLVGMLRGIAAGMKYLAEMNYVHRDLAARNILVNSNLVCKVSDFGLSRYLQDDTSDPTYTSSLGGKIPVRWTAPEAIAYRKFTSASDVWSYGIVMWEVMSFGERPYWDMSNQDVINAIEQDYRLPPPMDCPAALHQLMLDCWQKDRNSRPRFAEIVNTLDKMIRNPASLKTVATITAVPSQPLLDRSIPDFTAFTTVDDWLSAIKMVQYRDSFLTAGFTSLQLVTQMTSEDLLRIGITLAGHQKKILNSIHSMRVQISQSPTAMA
Excerpt: (§1) Any value less that 25 is considered to be highly significant inhibition.

[3] = molecular target: MLK1 (Homo sapiens, UniProt P80192); experiment: Kinase profiling MLK1; conditions: for remaining activity at 100 µM: read-out: residual kinase activity, MLK1
MLK1, sequence (P80192 whole entry, species assumed): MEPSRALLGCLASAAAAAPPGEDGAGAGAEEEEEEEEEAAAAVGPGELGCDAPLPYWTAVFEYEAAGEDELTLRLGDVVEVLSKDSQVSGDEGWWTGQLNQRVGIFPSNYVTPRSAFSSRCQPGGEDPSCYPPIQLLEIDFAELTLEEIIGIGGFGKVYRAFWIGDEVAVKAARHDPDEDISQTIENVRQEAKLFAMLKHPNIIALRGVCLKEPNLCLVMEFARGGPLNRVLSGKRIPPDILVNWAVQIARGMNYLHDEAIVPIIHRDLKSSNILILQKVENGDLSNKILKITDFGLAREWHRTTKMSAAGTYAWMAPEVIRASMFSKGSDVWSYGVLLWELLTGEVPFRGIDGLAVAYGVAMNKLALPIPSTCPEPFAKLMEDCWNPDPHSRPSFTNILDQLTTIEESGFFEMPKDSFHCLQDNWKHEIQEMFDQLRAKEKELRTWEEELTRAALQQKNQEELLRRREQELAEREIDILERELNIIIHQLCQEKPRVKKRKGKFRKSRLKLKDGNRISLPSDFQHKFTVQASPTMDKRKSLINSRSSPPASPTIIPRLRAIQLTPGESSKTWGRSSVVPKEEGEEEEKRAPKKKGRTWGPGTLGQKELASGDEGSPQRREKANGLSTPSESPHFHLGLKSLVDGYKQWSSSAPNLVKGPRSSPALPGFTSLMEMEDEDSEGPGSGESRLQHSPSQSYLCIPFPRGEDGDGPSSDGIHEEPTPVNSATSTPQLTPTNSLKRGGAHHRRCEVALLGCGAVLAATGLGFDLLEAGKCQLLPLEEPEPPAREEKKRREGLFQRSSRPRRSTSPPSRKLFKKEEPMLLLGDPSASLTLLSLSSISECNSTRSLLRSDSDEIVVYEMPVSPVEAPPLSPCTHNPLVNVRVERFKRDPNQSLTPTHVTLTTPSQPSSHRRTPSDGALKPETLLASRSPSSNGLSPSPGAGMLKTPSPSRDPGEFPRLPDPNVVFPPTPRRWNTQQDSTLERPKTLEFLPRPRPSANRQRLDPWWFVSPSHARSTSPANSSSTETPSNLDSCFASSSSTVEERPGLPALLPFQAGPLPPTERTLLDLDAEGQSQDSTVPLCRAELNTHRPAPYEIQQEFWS
Excerpt: as §1

[4] = system: PHK; experiment: Kinase profiling PHK
Excerpt: as §1

[5] = 100 micromolar inhibitor concentration, 100 is no change
[6] = 100 micromolar inhibitor, 100 = no change

Row | Compound | IC50 [1] [µM] | residual kinase activity, EPH-B1 [2, 5] | residual kinase activity, MLK1 [3, 5] | residual kinase activity, PHK [4, 5] | remaining activity at 100 µM [2, 5] [%] | remaining activity at 100 µM [3, 5] [%] | other results
1 | CC(=O)Nc1nc2ccc(F)cc2s1 [Compound 03-94] | 23.6 |  |  |  |  |  | 
2 | O=C(Nc1nc2cc(O)ccc2s1)c1ccncc1 [Compound 03-11] |  | 99 | 71 | 63 |  |  | 
3 | CC(=O)Nc1nc2cc(C)ccc2s1 [Compound 03-76] |  | 103 | 57 | 87 |  |  | 
4 | CC(=O)Nc1nc2cc(O)ccc2s1 [Compound 01-66, N-(5-hydroxybenzo[d]thiazol-2-yl)acetamide] | 0.8 |  |  | 49 |  |  | remaining activity at 100 µM [2]: 93%; remaining activity at 100 µM [3]: 39%
5 | CC(=O)Nc1nc2ccc(C(F)(F)F)cc2s1 [Compound 01-90] | 1.1 |  |  | 52 | 91 | 39 | 
6 | CC(=O)Nc1nc2ccc(O)cc2s1 [Compound 01-71] | 28.1 |  |  | 47 | 86 | 11 | 
7 | O=C(Nc1nc2ccc(O)cc2s1)c1ccccc1 [Compound 03-60] |  | 98 | 5 | 33 |  |  | 
8 | CC(=O)Nc1nc2ccc(C#N)cc2s1 [Compound 01-94] | 1.3 |  |  | 63 | 94 | 34 | 
9 | COc1ccc2sc(NC(C)=O)nc2c1 [Compound 03-21] | 0.4 |  |  | 111 | 99 | 84 | 
10 | O=C(Nc1nc2ccc(O)cc2s1)c1ccncc1 [Compound 08-42] |  | 93 | 33 | 58 |  |  | 
11 | CC(=O)Nc1cccc(NC(=O)c2nc3ccc(O)cc3s2)c1 [Compound 03-07, N-(3-acetamidophenyl)-6-hydroxybenzo[d]thiazole-2-carboxamide] |  |  |  |  |  |  | remaining activity at 100 µM [2, 6]: 104%; remaining activity at 100 µM [3, 6]: 26%; residual kinase activity, PHK [4, 6]: 55
12 | CC(=O)Nc1nc2ccc([N+](=O)[O-])cc2s1 [Compound 13-10] | 0.7 |  |  |  |  |  | 
13 | O=C(Nc1nc2cc(O)ccc2s1)c1ccccn1 [Compound 03-13] |  | 98 | 68 | 28 |  |  | 
14 | O=C(Nc1nc2ccc(O)cc2s1)c1ccccn1 [Compound 03-12] |  | 94 | 31 | 37 |  |  | 
15 | O=C(Nc1nc2ccc(O)cc2s1)c1cccnc1 [Compound 08-44] |  | 93 | 13 | 43 |  |  | 
16 | CC(=O)Nc1nc2cc(C(F)(F)F)ccc2s1 [Compound 03-73] | 26.5 |  |  | 91 | 114 | 75 | 
17 | CC(=O)Nc1nc2ccccc2s1 [Compound 03-32] |  | 97 | 72 | 94 |  |  | 
18 | CC(=O)Nc1nc2cc(F)ccc2s1 [Compound 03-77] | 3.9 |  |  | 89 | 103 | 58 | 
19 | O=C(Nc1nc2cc(O)ccc2s1)c1cccnc1 [Compound 03-33] |  | 104 | 61 | 74 |  |  | 

Source: patent US10231954B2, “Neurodegenerative therapies” (LYTIX BIOPHARMA AS, priority 2014, dated 2019)
